According to patent US9695219B2, “Polypeptide having antibacterial activity and angiogenesis-inducing activity and wound-healing drug containing said polypeptide” (priority 2009, dated 2017):
In brackets after ≈: the same amount, converted by molar mass. Where a SMILES comes first, the peptide text is derived from it. [ ]: non-standard residue; d: D form.

Key:
MRSA (clinical strain 1) = assay: microbe, parasite or virus in culture; type: cell-based; settings: Staphylococcus aureus, 37° C. for 20 hours, tested twice, first/second value where not matched
Protocol: (§1) Further, with respect to not only the above-described strains but also various other strains, the “minimum inhibitory concentration (MIC)” was measured as follows. MIC is the lowest concentration of an agent that may inhibit the growth of a bacterium. MIC is used as a parameter for the efficacy of an antibacterial agent, for the strength of bacterial sensitivity, or the like. The bacteria can grow (proliferate) when the concentration is not higher than MIC, and cannot grow when the concentration is higher than MIC. Its measurement is carried out according to a method defined as a standard method by Japanese Society of Chemotherapy or CLINICAL AND LABORATORY […] (CLSI), but, in this Example, its measurement was carried out by a broth microdilution method in accordance with “M100-S17/M7-A7” (Performance Standards for Antimicrobial Susceptibility Testing; Seventeenth Informational Supplement, Vol. 27 No. 1) published by CLSI on January, 2007. That is, sensitivity test of agents was carried out using a microtiter plate or test tubes.
(§2) The bacteria were cultured in liquid media for 4 to 6 hours, and thereafter absorbances at A600 were measured. Bacterial suspensions were diluted with Mueller-Hinton broth (MHB) according to McFarland #0.5. Each strain was added so as to attain about 10^5 CFU/ml (final concentration). Each peptide was prepared to an optional concentration, and the solutions were serially diluted from the concentration. The polypeptide at each concentration stage was added to a microplate or test tubes, and the bacterial suspension was added thereto. Chloramphenicol, amphotericin B, ciprofloxacin, meropenem (MEPM), ciprofloxacin (CPFX), tobramycin (TOB) and oxacillin (OX) were used as positive controls. The plate was incubated at 37° C. for 20 hours, and the lowest concentration where bacterial growth was inhibited was regarded as the minimum inhibitory concentration.

Staphylococcus aureus = assay: microbe, parasite or virus in culture; type: cell-based; settings: 37° C. for 20 hours, tested twice, first/second value where not matched
Protocol: as §1, §2

[1] = tested on: Staphylococcus epidermidis; assay: MIC measurement, broth microdilution; type: cell-based; settings: Staphylococcus epidermidis; 37° C. for 20 hours; tested twice, first/second value where not matched
Protocol: as §1, §2

MRSA (clinical strain 2) = assay: microbe, parasite or virus in culture; type: cell-based, Staphylococcus aureus; settings: Staphylococcus aureus, MRSA; 37° C. for 20 hours; tested twice, first/second value where not matched
Protocol: as §1, §2

MSSA (clinical strain 1) = assay: microbe, parasite or virus in culture; type: cell-based, Staphylococcus aureus; settings: 37° C. for 20 hours; tested twice, first/second value where not matched
Protocol: as §1, §2

MSSA (clinical strain 2) = assay: microbe, parasite or virus in culture; type: cell-based, Staphylococcus aureus; settings: Staphylococcus aureus, MSSA; 37° C. for 20 hours; tested twice, first/second value where not matched
Protocol: as §1, §2

[2] = Antibacterial activity, ATP assay (BacTiter-Glo); type: cell-based, Enterobacter aerogenes; settings: Table 7, mean values; peptides 10 μg/mL, TOB 4.0, OX 4.0, MEPM 0.5 μg/mL; 37° C. 3 hours; relative to negative control; read-out: Viability, Enterobacteria (2)
Protocol: The antibacterial activity of each of SR-08 and SR-07 polypeptides was measured using an ATP assay method. That is, using BacTiter-Glo Microbial Cell Viability Assay kit available from PROMEGA, the antibacterial activity of the peptides was evaluated from the viability of bacteria. In other words, ATP amount in viable bacteria in cases where the concentration of the peptides was 10 μg/mL was measured using a microtiter plate or test tubes. As controls, tobramycin (TOB), oxacillin (OX) and meropenem (MEPM) were used at the concentrations as respectively shown in Table 6 below.
With respect to the strains, Escherichia coli: ATCC 25922 (Escherichia coli ATCC 25922), Pseudomonas aeruginosa: ATCC 27853 (Pseudomonas aeruginosa ATCC 27853), Staphylococcus aureus: ATCC29213 (Staphylococcus aureus ATCC29213), Klebsiella pneumoniae: JCM 1662 (Klebsiella pneumoniae JCM 1662), enterobacteria (1): JCM 1232 (Enterobacter cloacae JCM 1232), and enterobacteria (2): JCM 1235 (Enterobacter aerogenes JCM 1235), were used.
The bacteria were cultured in media for 3 to 4 hours, and thereafter absorbances at A600 were measured. Bacterial suspensions were diluted with Mueller-Hinton broth (MHB) according to McFarland #0.5. Each strain was added so as to attain about 0.5-1×10^5 CFU/mL (final concentration) in terms of Escherichia coli. Each peptide was prepared and added to a microplate or test tubes so as to attain a final concentration of 10 μg/mL, and the bacterial suspension was added thereto. The plate was incubated at 37° C. for 3 hours, and the amount of ATP in the culture media was measured. Relative values were calculated by comparison with the negative control, and these values were regarded as the viability.

[3] = tested on: Normal human dermal fibroblasts (NHDFs); type: cell-based
Protocol: Next, the effect of these polypeptides on the growth of human umbilical vein endothelial cells (HUVECs) was studied. A cell growth activity of the polypeptides was examined using Cell Counting Kit (WST-1) available from Dojindo Laboratories. As a negative control (Control), polypeptide-free group was used. Cells (human umbilical vein endothelial cells: HUVECs) were plated in a 96-well plate (0.5×10^4 cells/well/100 μL, serum 1%). About 3 hours after plating the cells, the polypeptides (1, 3, 10, 30 or 100 μg/ml) and FGF (100 ng/ml) as a positive control were individually added thereto in an amount of 100 μL. To the unstimulated group, only a medium was added in an amount of 100 μL. The plate was left to stand in a CO2 incubator for about 48 hours. Thereafter, WST-1 reagent was added to each well in an amount of 20 μL, and then the plate was left to stand in a CO2 incubator for about 2 hours. Absorbances at wavelengths of 450 nm and 620 nm were measured using Wallac 1420 ARVOsx (Program: WST-1). A value of O.D.450-O.D.620 was calculated for each measurement. […] The cell growth activity was evaluated on the basis of the ratio of Net O.D.450 of polypeptide-containing groups relative to Net O.D.450 of the unstimulated group.
Then, the effect on the growth of normal human dermal fibroblasts (NHDFs) was also studied by the same method as described above.

[4] = Stability in rat serum (HPLC); type: in vitro ADME; settings: 37° C.
Protocol: (§3) The stability of the polypeptides in serum was evaluated. In human serum (purchased from KAC Co., Ltd.), or in rat serum obtained by collecting blood from a rat, then leaving the collected blood to stand at room temperature followed by centrifugation, each of the peptides was dissolved so as to attain a final concentration of 500 μg/mL, and the obtained solutions were left to stand at 37° C. After leaving to stand for 3 min or 10 min, these solutions were subjected to HPLC chromatogram analysis to detect peaks of the decomposition products, and calculate the ratio of the concentration of the peptides which remained in the solutions relative to the starting concentration. In addition, the half-lives of the peptides in serum were also calculated.

[5] = Stability in human serum (HPLC); type: in vitro ADME; settings: 37° C.
Protocol: as §3

| Compound | MIC (MRSA (clinical strain 1)) | MIC (Staphylococcus aureus) | MIC [1] | MIC (MRSA (clinical strain 2)) | MIC, MSSA (clinical strain 1) (MSSA (clinical strain 1)) | MIC (MSSA (clinical strain 2)) | viability [2] | Concentration above which the polypeptide tended to exhibit toxicity, NHDFs (FIG. 4) [3] | Ratio of peptide remaining relative to the starting concentration, rat serum, 0 min ([4]; 500 μg/mL, 0 min) | remaining at 0.05 h, 500 μg/mL ([4]; rat, rat serum, 3 min, read-out: Ratio of peptide remaining relative to the starting concentration, rat serum, 3 min) | remaining at 10 min, 500 μg/mL ([4]; rat, rat serum, 10 min, read-out: Ratio of peptide remaining relative to the starting concentration, rat serum, 10 min) | half-life ([4]; rat, serum, 500 μg/mL) | Ratio of peptide remaining relative to the starting concentration, human serum, 0 min ([5]; 500 μg/mL, 0 min) | remaining at 0.05 h, 500 μg/mL ([5]; human, human serum, 3 min, read-out: Ratio of peptide remaining relative to the starting concentration, human serum, 3 min) | remaining at 10 min, 500 μg/mL ([5]; human, human serum, 10 min, read-out: Ratio of peptide remaining relative to the starting concentration, human serum, 10 min) | half-life ([5]; human, serum, 500 μg/mL) |
| --- | --- | --- | --- | --- | --- | --- | --- | --- | --- | --- | --- | --- | --- | --- | --- | --- |
| Cc1onc(-c2ccccc2)c1C(=O)N[C@@H]1C(=O)N2[C@@H]1SC(C)(C)[C@@H]2C(=O)O [OX, oxacillin] | < 4 µg/mL | 0.15 to 0.5 µg/mL (≈ 0.374 to 1.25 µM) | 0.15 to 0.5 µg/mL (≈ 0.374 to 1.25 µM) | > 8 µg/mL | 3/8 | < 2 µg/mL | – | – | – | – | – | – | – | – | – | – |
| CC[C@H](C)[C@H](NC(=O)[C@H](CC(C)C)NC(=O)[C@H](CCCCN)NC(=O)[C@H](CC(C)C)NC(=O)[C@@H](N)CCSC)C(=O)N[C@@H](Cc1ccccc1)C(=O)N[C@@H](CC(C)C)C(=O)N[C@@H](Cc1c[nH]cn1)C(=O)N[C@@H](CCCNC(=N)N)C(=O)N[C@@H](CC(C)C)C(=O)N[C@@H](CCCCN)C(=O)N[C@@H](CCCNC(=N)N)C(=O)N[C@@H](CCSC)C(=O)N[C@@H](CCCNC(=N)N)C(=O)N[C@@H](CCCCN)C(=O)N[C@@H](CCCNC(=N)N)C(=O)N[C@@H](CC(C)C)C(=O)N[C@H](CCCCN)C(=O)N[C@@H](CCCNC(=N)N)C(=O)N[C@@H](CCCCN)C(=O)O [SR-07] (H-MLKLIFLHRLKRMRKRL[dK]RK-OH; N-terminus and C-terminus assumed) | – | – | – | – | – | – | 16.5% | > 30000 ng/mL | 100 | 51% | 16.5% | 4 min | 100 | 98% | 64.3% | 15 min |
